{"source": "patent US8163788B2", "about": "“Low-molecular inhibitors of cytohesin-family guanine nucleotide exchange factors” (Rheinische Friedrich-Wilhelms Universitat Bonn, priority 2004, dated 2012)", "key": {"sec7-domain of Gea2": {"target": "T1, sec7-domain of Gea2 (Saccharomyces cerevisiae, UniProt P39993)", "T1 construct": "1 μM of the purified sec7-domain of cytohesin-1, cytohesin-2 and Gea2; made in house; host or cells: E. coli BL21DE3", "T1 sequence (P39993 570-714)": "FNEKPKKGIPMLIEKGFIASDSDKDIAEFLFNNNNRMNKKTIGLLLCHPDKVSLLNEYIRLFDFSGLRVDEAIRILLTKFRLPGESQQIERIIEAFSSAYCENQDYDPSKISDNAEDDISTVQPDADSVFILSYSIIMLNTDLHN", "experiment": "GDP/GTP exchange on NΔ17-ARF1 catalysed by sec7-domain (tryptophan fluorescence)", "assay_type": "biochemical", "procedure": "(§1) The IC50 value for the inhibition of the exchange activity of the sec7-domains of various guanine nucleotide exchange factors of the compounds (9), (10), (11), (12), (14) and (19) was determined.\n(§2) For this purpose, the sec7-domains of cytohesin-1, cytohesin-2 and Gea2 as well as the NΔ 17-ARF 1, a mutant of the ARF protein, recombinantly expressed in E. coli BL21DE3, were purified by means of a standard method and used as catalysts for the exchange from GDP to GTP in GTPases of the family of the ADP ribosylation factors. The exchange from GDP to GTP induces a conformation change of the ribosylation factor, as a result of which the fluorescence of a tryptophan radical of the protein is increased.\n(§3) In 50 mM of HEPES, pH 7.4, 120 mM of KCl, 1 mM of MgCl2, 45 μM of GTP S, the compounds (9), (10), (11), (12), (14) and (19), each in concentrations of 1 μM to 30 μM, were added to 1 μM NΔ 17-ARF1 and, in each case, 1 μM of the purified sec7-domain of cytohesin-1, cytohesin-2 and Gea2, and the fluorescence was measured in a Varioskan, Thermo LifeSciences Inc., at the following wavelengths: excitation: 275 nm, emission 340 nm.\n(§4) The IC50 value can be determined by plotting the initial rise of the fluorescence signal against the added concentrations of the compounds. The IC50 value corresponds to the concentration of the compounds at which the activity of the protein is reduced to half. […] Brefeldin A, a specific inhibitor of the […] Gea2 served as the control."}, "[1]": {"target": "T2, sec7-domain of cytohesin-1 (Homo sapiens, UniProt Q15438)", "T2 construct": "central sec7-domain, corresponding to the amino acids 62-244 in cytohesin-1; made in house; host or cells: E. coli BL21DE3", "T2 sequence (Q15438 62-244)": "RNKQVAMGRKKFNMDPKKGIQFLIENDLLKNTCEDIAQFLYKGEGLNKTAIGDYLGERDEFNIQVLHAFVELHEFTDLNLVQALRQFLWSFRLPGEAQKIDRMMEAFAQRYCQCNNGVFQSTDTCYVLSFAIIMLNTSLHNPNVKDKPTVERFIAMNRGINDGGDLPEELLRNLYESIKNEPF", "experiment": "GDP/GTP exchange on NΔ17-ARF1 catalysed by sec7-domain (tryptophan fluorescence)", "assay_type": "biochemical", "conditions": "1 μM NΔ17-ARF1, 1 μM sec7-domain, compounds 1 μM to 30 μM", "procedure": "as §1, §2, §3, §4"}, "[2]": {"tested_on": "sec7-domain of cytohesin-1", "experiment": "GDP/GTP exchange on NΔ17-ARF1 catalysed by sec7-domain (tryptophan fluorescence)", "assay_type": "biochemical", "conditions": "conclusion in words from Table 1", "procedure": "as §1, §2, §3, §4"}, "[3]": {"target": "T3, sec7-domain of cytohesin-2 (Homo sapiens, UniProt Q99418)", "T3 construct": "1 μM of the purified sec7-domain of cytohesin-1, cytohesin-2 and Gea2; made in house; host or cells: E. coli BL21DE3", "T3 sequence (Q99418 72-201 limits assumed)": "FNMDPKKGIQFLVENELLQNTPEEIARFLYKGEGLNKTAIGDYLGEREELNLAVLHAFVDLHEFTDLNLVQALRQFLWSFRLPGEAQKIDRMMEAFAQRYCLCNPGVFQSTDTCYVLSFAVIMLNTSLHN", "experiment": "GDP/GTP exchange on NΔ17-ARF1 catalysed by sec7-domain (tryptophan fluorescence)", "assay_type": "biochemical", "conditions": "1 μM NΔ17-ARF1, 1 μM sec7-domain, compounds 1 μM to 30 μM", "procedure": "as §1, §2, §3, §4"}, "cytohesin-2": {"tested_on": "cytohesin-2", "experiment": "luciferase assay in HeLa-cells (serum response element activation, MAPK path via cytohesin-2)", "assay_type": "cell-based", "conditions": "compounds 1 μM to 50 μM, read-out: IC50 (luciferase signal)", "procedure": "The IC50 value was determined in comparison to the LC50 value in a luciferase assay in HeLa-cells, corresponding to the test conditions described in Theis, M. G. et al., Proc Natl Acad Sci USA, 101, 11221-26 (2004). The stimulation of receptor tyrosine kinases by means of growth factors contained in fetal calf serum activates the MAPK path via cytohesin-2 and results in an activation of the serum response element. This activation manifests itself in the quantity of luciferase produced in the cells.\nCompounds (9), (10), (11), (12), (14) and (19) were each added in concentrations of 1 μM to 50 μM to 6.5×10^4 HeLa-cells.\nThe IC50 value was determined from the plotting of the concentration of the compound against the intensity of the luciferase signal."}, "[4]": {"tested_on": "Peripheral blood lymphocytes", "experiment": "cytotoxicity by propidium iodide (PI) flow cytometry", "assay_type": "cell-based", "conditions": "50 nM to 50 μM", "procedure": "The cytotoxicity of the compound according to Formula (9) was determined by means of propidium iodide (PI) employing flow cytometry. PI is a DNA stain that cannot penetrate into living cells. The experiments were carried out in an incubator at 37° C. [98.6° F.] and 5% CO2.\nPeripheral blood lymphocytes were incubated with concentrations of 50 nM, 100 nM, 1 μM, 5 μM, 20 μM or 50 μM of the compound according to Formula (9) in “VLE-RPMI+/+” (Biochrom). The DMSO concentration per batch was 0.5%. A control batch contained 0.5% DMSO. After 2 hours, 24 hours and 72 hours, cells were removed and incubated with 2 μg/ml of PI for 5 minutes. The cells were centrifuged at 200×g for 8 minutes, washed with PBS, centrifuged again and analyzed in a flow cytometer (Beckmann Coulter, Krefeld)."}}, "data": [{"molecule": "COc1nc(-c2ccc3c(c2)OCO3)n(-c2ccc(NC(=O)CSc3ccccc3)cc2)n1", "note": "[Compound 9]", "values": [{"measurement": "IC50", "setting": "sec7-domain of Gea2", "result": "64 ± 4", "unit": "µM"}, {"measurement": "IC50", "setting": "[1]", "result": "7.6 ± 0.3", "unit": "µM"}, {"measurement": "specificity of inhibition of sec7-domains (cytohesins vis-à-vis Gea2)", "setting": "[2]", "result": "specific inhibition of the sec7-domains of the cytohesins"}, {"measurement": "IC50", "setting": "[3]", "result": "8.3 ± 0.2", "unit": "µM"}, {"measurement": "IC50", "setting": "cytohesin-2", "result": "12 ± 0.8", "unit": "µM"}, {"measurement": "percentage of PI-positive (dead) cells", "setting": "[4]; 2 hours, 24 hours and 72 hours", "result": "did not rise in a concentration-dependent or time-dependent manner"}, {"measurement": "cytotoxicity", "setting": "[4]; conclusion from PI flow cytometry, up to 72 hours", "result": "no cytotoxicity or at least no clearly detectable cytotoxicity"}]}]}
